Reference: US9833466B2, “Treatment of leukemia with histone deacetylase inhibitors” (Acetylon Pharmaceuticals Inc., priority 2014, dated 2017)

Legend:
Assay type in all cases: cell-based
[1] = test system: AML cell lines (Kasumi-3, HL-60, and THP-1); experiment: AML cell viability assay (Cell Titer Glo), HDAC inhibitor combined with azacitidine; details: combination with azacitidine; 72 hours; synergistic only when CI<0.7
Method: With the same amount of cultured AML cells in each well, serial dilutions of one compound were added into each row of the wells from left to right, and serial dilutions of the second compound were mixed into each column of these wells from top to bottom. Therefore, those AML cells on the testing plate were exposed to various combinations of the two compounds at different concentrations. The viable cells in each well were measured after 72 hours incubation at 37° C., and the percentage of unviable cells was calculated and normalized to the total cells. […] The CI values were plotted as a function of Fa, as shown in FIGS. 1A-D. In order to avoid any possible false positives due to experimental data variability, a combination was determined “synergistic” only when CI<0.7, as shown in the shaded area of each graph. […] The synergism is driven predominantly by HDAC1/2 inhibition.

[2] = test system: HL-60, NB4, MV4-11, Kasumi-1, THP-1, and MOLM-13; experiment: Single agent activity on viability in AML cell lines; details: 72 hours, six AML cell lines
Method: FIGS. 3A-D show the single agent activity on viability in AML cell lines. Briefly, each of the following cell lines: HL-60, THP-1, MV-4-11, Kasumi-1, NB4, and MOLM-13 were exposed to increasing concentrations of either Compound B (FIG. 3A), Compound A (FIG. 3B), Compound E (FIG. 3C), or azacitidine (FIG. 3D) to determine their response to drug treatment. […] The panel of cell lines was also treated with azacitidine to measure their sensitivity.
FIGS. 8A-F show the single agent activity on viability in AML cell lines. […] Viability was calculated as a percentage of control (DMSO treated cells). Growth inhibition curves were generated using GraphPad Prism 6.
FIG. 17. […] (B-D) MV4-11 cells were treated with indicated concentrations of compounds. (B) Surface levels of myeloid differentiation marker CD11b were determined by FACS at 72 h post-treatment. […] (C) Cell cycle was assessed by flow cytometry after incorporation of EdU and staining with Far Red at 72 h post-treatment. The distribution of cells among G0/G1 phase, G2/M phase, S phase and subG1 phase was determined. […] (D) Apoptosis was assessed by flow cytometry via measuring Annexin V binding and cellular permeability to propidium iodide at 96 h post-treatment. The relative fraction of cells that were live, in early apoptosis, in late apoptosis or dead was then determined.

NB4 = experiment: Surface CD11b by FACS in NB4; details: combination with azacitidine vs single agent, 72 hours
Method: Briefly, the AML cell lines HL-60 (FIGS. 4A and 4D), Kasumi-1 (FIGS. 4B and 4E) and NB4 (FIGS. 4C and 4F) were treated with the indicated concentrations of compounds. In FIGS. 4A-C, surface levels of myeloid differentiation marker CD11b were determined by FACS at 72 hours post-treatment. […] In FIGS. 4D-F, apoptosis was assessed by flow cytometry by measuring Annexin V binding and cellular permeability to propidium iodide at 96 hours post-treatment. The relative fraction of cells that were alive, in early apoptosis, in late apoptosis, or dead was then determined.
FIGS. 7A-F show the combination of HDAC inhibitors and azacitidine in the NB4 cell line. Briefly, cells were treated with DMSO, Compound B, Compound A, or Compound E as single agent or in combination with azacitidine at the indicated concentrations. Surface levels of CD11b were determined 72 hours post-treatment (FIGS. 7A, 7C, 7E), and apoptosis was assessed 96 hours post-treatment (FIGS. 7B, 7D, 7F).

MV4-11 = experiment: Cell cycle by flow cytometry (EdU, Far Red) in MV4-11; details: single agent, 72 h
Method: The distribution of cells among G0/G1 phase, G2/M phase, S phase and subG1 phase was determined. […] The relative fraction of cells that were live, in early apoptosis, in late apoptosis, or dead was then determined.
FIG. 17. […] (A) Indicated AML cell lines were exposed to increasing concentrations of Compound J to confirm their sensitivity to HDAC1/2 inhibition. (B-D) MV4-11 cells were treated with indicated concentrations of compounds. (B) Surface levels of myeloid differentiation marker CD11b were determined by FACS at 72 h post-treatment. […] (C) Cell cycle was assessed by flow cytometry after incorporation of EdU and staining with Far Red at 72 h post-treatment. The distribution of cells among G0/G1 phase, G2/M phase, S phase and subG1 phase was determined. […] (D) Apoptosis was assessed by flow cytometry via measuring Annexin V binding and cellular permeability to propidium iodide at 96 h post-treatment. The relative fraction of cells that were live, in early apoptosis, in late apoptosis or dead was then determined.

[3] = test system: AML blast freshly derived from bone marrow of AML patients; experiment: Ex vivo proliferation of AML blast freshly derived from bone marrow; details: Homo sapiens; 5 bone marrow samples from AML patients; flow cytometry at 96 h; single agent; read-out: median IC50, live AML cells
Method: (A-B), 5 bone marrow samples derived from AML patients were treated with increasing concentrations of azacitidine, Compound A and Compound J and live AML cells were quantified by flow cytometry at 96 h. IC50 values (A) and AUC values (B) were plotted. […] The relative potency of the three drugs are Compound J>azacitidine>Compound A, consistent with the result in FIG. 2. (C) 5 bone marrow samples derived from AML patients were treated with increasing doses of azacitidine with Compound J and live AML cells were quantified by flow cytometry at 96 h. The combination index (Comb IDX) were calculated and median Comb IDX values were plotted.

Kasumi-1 = Kasumi-1 cell cycle by propidium iodide staining (sub-G1); details: 72 hours, increasing concentrations
Method: HDAC inhibition causing AML cell death (apoptosis) was measured by staining the AML cells with propidium iodide after the cells were exposed to different concentrations of the HDAC inhibitors. Four distinct cell populations, G1, S, G2, and sub-G1, were separated and quantified based on their propidium iodide staining patterns. The sub-G1 cells are those dying or dead cells, and the percentage of this population was a reflection of the tested compound cytotoxicity.

Structure (SMILES) | synergy of cytotoxicity with azacitidine (CI vs Fa) [1] | viability IC50 relative to HDAC selective range [2] | CD11b positive cells (NB4) | cell cycle arrest (MV4-11) | IC50 [3] | sub-G1 cells (dying or dead cells) (Kasumi-1)
O=C(CCCCCCNC(=O)c1cnc(N(c2ccccc2)c2ccccc2)nc1)NO [Compound A, 2-(diphenylamino)-N-(7-(hydroxyamino)-7-oxoheptyl)pyrimidine-5-carboxamide] | significant synergistic cell killing | has some inhibitory effects on HDAC1/2 at their IC50 values | synergistic increases of CD11b positive cells | induced cell cycle arrest as well as apoptosis | 7.2 µM | –
O=C(CCCCCCNC(=O)c1cnc(N(c2ccccc2)c2ccccc2Cl)nc1)NO [Compound B, 2-((2-chlorophenyl)(phenyl)amino)-N-(7-(hydroxyamino)-7-oxoheptyl)pyrimidine-5-carboxamide] | – | – | synergistic increases of CD11b positive cells | – | – | Increased amount of sub-G1 cells
Nc1ccc(-c2cccs2)cc1NC(=O)c1ccc2c(c1)cc(C1CC1)n2CCN1CCOCC1 [Compound E, N-(2-amino-5-(thiophen-2-yl)phenyl)-2-cyclopropyl-1-(2-morpholinoethyl)-1H-indole-5-carboxamide] | the most synergy | within its HDAC1/2 selective range | – | induced cell cycle arrest as well as apoptosis | – | Increased amount of sub-G1 cells
